Data published in US20090123389A1, “Methods for modulating Th17 cell development in the treatment and prevention of cellulite” (priority 2007, published 2009).

Tests used:
[1] = test system: human memory T cells (CD4+ CD45RO+); test: IL-17 and IFNγ expression by human memory T cells co-cultured with monocytes; assay type: cell-based; settings: 100 nM HF, 6 days
Description: FIG. 10F is an illustration depicting purified primary human memory T cells (CD4^+ CD45RO^+) activated by anti-CD3/anti-CD28 coated beads in co-culture with CD14^+ monocytes and treated with DMSO, 100 nM HF or 100 nM MAZ1310. T cells were expanded for 6 days and intracellular cytokine expression was determined following restimulation with PMA plus ionomycin in the presence of brefeldin A.
Human T cell isolation and activation: Resting CD4^+ T cells were isolated from PBMC of healthy human donors using Dynal CD4 Positive Isolation Kit (Invitrogen, Carlsbad, Calif.) as previously described (M. Sundrud et al., Blood 106, 3440, 2005). CD4^+ cells were further purified to obtain memory T cells by staining with PE-conjugated anti-human CD45RO-PE antibodies (BD Biosciences), and sorting on a FACSAria cytometer (BD Biosciences). Following purification, cells were greater than 99% CD4^+ CD45RO^+. […] T cells were expanded in the presence HF or MAZ1310 as indicated for 6 days and intracellular cytokine expression was determined by intracellular staining.
Detection of cytokine production: Cytokines secreted into media supernatant were measured using the mouse Th1/Th2 cytometric bead array (CBA, BD Pharmingen) in accordance with manufacturers instructions. […]

[2] = human, in vivo; cited from earlier work
T-cells and fibroblasts = test: Non-specific effects at high concentrations in vitro; assay type: cell-based; settings: about 80 nM HF, primary T-cells
[3] = test system: T cell-mediated inflammation; settings: oxazolone-induced; cited from earlier work
CD4+ CD25− T cells = test: DNA microarray transcriptional profile of T cells activated in Th17-priming conditions; assay type: cell-based, mouse; settings: 10 nM

## O=C(CC1NCCCC1O)Cn1cnc2cc(Br)c(Cl)cc2c1=O (racemic) [HF, 7-bromo-6-chloro-3-[3-(3-hydroxy-2-piperidinyl)-2-oxopropyl]-4(3H)-quinazolinone]
[1]
  IFNγ expression by human T cells: essentially unaffected
  percentage of human T cells expressing IL-17 and amount of IL-17 produced: greatly reduced
[2]
  HF in serum during topical treatment: undetectable in serum
T-cells and fibroblasts
  T-cell proliferation at high concentrations: generalized inhibition
[3]
  T cell-mediated inflammation (delayed-type hypersensitivity): inhibits this T cell-mediated inflammation
CD4+ CD25− T cells; 3 and 6 hours
  annotated genes differentially expressed at both time points in HF- versus MAZ1310-treated cells: 81
CD4+ CD25− T cells; 3 hr, Th17-priming conditions
  Aars transcript fold increase, HF vs. MAZ1310: 2.7 ± 0.4 fold
  Aff1 transcript fold increase, HF vs. MAZ1310: 2.3 ± 0.4 fold
  Aldh18a1 transcript fold increase, HF vs. MAZ1310: 2.1 ± 0.5 fold
  Asns transcript fold increase, HF vs. MAZ1310: 6.1 ± 1.2 fold
  Atf3 transcript fold increase, HF vs. MAZ1310: 3.0 ± 0.1 fold
  Atf5 transcript fold increase, HF vs. MAZ1310: 2.4 ± 0.1 fold
  Cars transcript fold increase, HF vs. MAZ1310: 2.2 ± 0.4 fold
  Cd274 transcript fold increase, HF vs. MAZ1310: 2.1 ± 0.2 fold
  Cebpb transcript fold increase, HF vs. MAZ1310: 3.9 ± 0.5 fold
  Cebpg transcript fold increase, HF vs. MAZ1310: 2.5 ± 0.5 fold
  Chd2 transcript fold increase, HF vs. MAZ1310: 2.2 ± 0.3 fold
  Cldn12 transcript fold increase, HF vs. MAZ1310: 3.2 ± 0.7 fold
  Clic4 transcript fold increase, HF vs. MAZ1310: 2.4 ± 0.2 fold
  Cth transcript fold increase, HF vs. MAZ1310: 2.2 ± 0.7 fold
  Cxcl10 transcript fold increase, HF vs. MAZ1310: 2.1 ± 0.3 fold
  D8Ertd56e transcript fold increase, HF vs. MAZ1310: 2.1 ± 0.3 fold
  Ddit3 transcript fold increase, HF vs. MAZ1310: 5.6 ± 1.1 fold
  Eif4Ebp1 transcript fold increase, HF vs. MAZ1310: 6.8 ± 1.8 fold
  Gpt2 transcript fold increase, HF vs. MAZ1310: 10.0 ± 1.2 fold
  Herpud1 transcript fold increase, HF vs. MAZ1310: 2.4 ± 0.3 fold
  Icam1 transcript fold increase, HF vs. MAZ1310: 2.0 ± 0.1 fold
  Irf1 transcript fold increase, HF vs. MAZ1310: 2.0 ± 0.3 fold
  Lars transcript fold increase, HF vs. MAZ1310: 2.3 ± 0.3 fold
  Mpa2l transcript fold increase, HF vs. MAZ1310: 2.3 ± 0.3 fold
  Ncoa7 transcript fold increase, HF vs. MAZ1310: 3.0 ± 0.3 fold
  Nfkbiz transcript fold increase, HF vs. MAZ1310: 2.0 ± 0.3 fold
  Pck2 transcript fold increase, HF vs. MAZ1310: 4.9 ± 0.8 fold
  Pdcd1lg2 transcript fold increase, HF vs. MAZ1310: 3.2 ± 0.7 fold
  Phgdh transcript fold increase, HF vs. MAZ1310: 3.8 ± 0.9 fold
  Psat1 transcript fold increase, HF vs. MAZ1310: 2.1 ± 0.5 fold
  Psph transcript fold increase, HF vs. MAZ1310: 3.5 ± 0.4 fold
  Pvr transcript fold increase, HF vs. MAZ1310: 2.0 ± 0.3 fold
  Pycr1 transcript fold increase, HF vs. MAZ1310: 4.6 ± 0.7 fold
  Pycs transcript fold increase, HF vs. MAZ1310: 2.1 ± 0.2 fold
  Sars1 transcript fold increase, HF vs. MAZ1310: 2.0 ± 0.3 fold
  Sesn2 transcript fold increase, HF vs. MAZ1310: 2.6 ± 0.3 fold
  Slamf7 transcript fold increase, HF vs. MAZ1310: 2.2 ± 0.4 fold
  Slc1a4 transcript fold increase, HF vs. MAZ1310: 3.2 ± 0.9 fold
  Slc5a9 transcript fold increase, HF vs. MAZ1310: 2.4 ± 0.3 fold
  Slc7a3 transcript fold increase, HF vs. MAZ1310: 2.0 ± 0.2 fold
  Slc14a1 transcript fold increase, HF vs. MAZ1310: 2.0 ± 0.1 fold
  Trib3 transcript fold increase, HF vs. MAZ1310: 7.1 ± 2.0 fold
  Trim12 transcript fold increase, HF vs. MAZ1310: 2.4 ± 0.1 fold
  Vegfa transcript fold increase, HF vs. MAZ1310: 3.2 ± 0.2 fold
  Xist transcript fold increase, HF vs. MAZ1310: 3.5 ± 1.7 fold
CD4+ CD25− T cells; 6 hr, Th17-priming conditions
  Aars transcript fold increase, HF vs. MAZ1310: 2.6 ± 0.2 fold
  Aff1 transcript fold increase, HF vs. MAZ1310: 2.6 ± 0.3 fold
  Aldh18a1 transcript fold increase, HF vs. MAZ1310: 2.7 ± 0.2 fold
  Asns transcript fold increase, HF vs. MAZ1310: 7.1 ± 0.5 fold
  Atf3 transcript fold increase, HF vs. MAZ1310: 3.2 ± 0.5 fold
  Atf5 transcript fold increase, HF vs. MAZ1310: 8.9 ± 1.0 fold
  Cars transcript fold increase, HF vs. MAZ1310: 2.2 ± 0.3 fold
  Cd274 transcript fold increase, HF vs. MAZ1310: 2.0 ± 0.1 fold
  Cebpb transcript fold increase, HF vs. MAZ1310: 8.0 ± 0.2 fold
  Cebpg transcript fold increase, HF vs. MAZ1310: 3.1 ± 0.5 fold
  Chd2 transcript fold increase, HF vs. MAZ1310: 2.5 ± 0.5 fold
  Cldn12 transcript fold increase, HF vs. MAZ1310: 4.6 ± 0.5 fold
  Clic4 transcript fold increase, HF vs. MAZ1310: 2.8 ± 0.2 fold
  Cth transcript fold increase, HF vs. MAZ1310: 16.0 ± 1.6 fold
  Cxcl10 transcript fold increase, HF vs. MAZ1310: 2.1 ± 0.1 fold
  Ddit3 transcript fold increase, HF vs. MAZ1310: 5.0 ± 0.7 fold
  Eif4Ebp1 transcript fold increase, HF vs. MAZ1310: 5.3 ± 0.3 fold
  Gpt2 transcript fold increase, HF vs. MAZ1310: 16.7 ± 2.2 fold
  Herpud1 transcript fold increase, HF vs. MAZ1310: 2.7 ± 0.1 fold
  Icam1 transcript fold increase, HF vs. MAZ1310: 2.8 ± 0.3 fold
  Irf1 transcript fold increase, HF vs. MAZ1310: 2.6 ± 0.2 fold
  Lars transcript fold increase, HF vs. MAZ1310: 2.1 ± 0.0 fold
  Mpa2l transcript fold increase, HF vs. MAZ1310: 7.3 ± 1.7 fold
  Ncoa7 transcript fold increase, HF vs. MAZ1310: 3.2 ± 0.5 fold
  Nfkbiz transcript fold increase, HF vs. MAZ1310: 1.9 ± 0.3 fold
  Pck2 transcript fold increase, HF vs. MAZ1310: 7.4 ± 0.9 fold
  Pdcd1lg2 transcript fold increase, HF vs. MAZ1310: 2.5 ± 0.3 fold
  Phgdh transcript fold increase, HF vs. MAZ1310: 4.2 ± 0.3 fold
  Psat1 transcript fold increase, HF vs. MAZ1310: 2.6 ± 0.0 fold
  Psph transcript fold increase, HF vs. MAZ1310: 3.4 ± 0.3 fold
  Pvr transcript fold increase, HF vs. MAZ1310: 2.0 ± 0.1 fold
  Pycr1 transcript fold increase, HF vs. MAZ1310: 6.6 ± 0.4 fold
  Pycs transcript fold increase, HF vs. MAZ1310: 2.3 ± 0.1 fold
  Sars1 transcript fold increase, HF vs. MAZ1310: 2.3 ± 0.1 fold
  Sesn2 transcript fold increase, HF vs. MAZ1310: 2.3 ± 0.2 fold
  Slamf7 transcript fold increase, HF vs. MAZ1310: 2.1 ± 0.2 fold
  Slc1a4 transcript fold increase, HF vs. MAZ1310: 4.6 ± 0.4 fold
  Slc5a9 transcript fold increase, HF vs. MAZ1310: 5.7 ± 0.6 fold
  Slc7a3 transcript fold increase, HF vs. MAZ1310: 6.5 ± 0.9 fold
  Slc14a1 transcript fold increase, HF vs. MAZ1310: 6.6 ± 0.4 fold
  Trib3 transcript fold increase, HF vs. MAZ1310: 18.5 ± 8.5 fold
  Trim12 transcript fold increase, HF vs. MAZ1310: 4.9 ± 0.7 fold
  Vegfa transcript fold increase, HF vs. MAZ1310: 5.8 ± 0.5 fold
  Xist transcript fold increase, HF vs. MAZ1310: 2.1 ± 0.7 fold
